Experimental data: patent publication US11905281B2 (Amgen Inc., priority 2017, dated 2024)
pIC50: −log10 of the molar value. Where two headings read alike, the source gives them in different places.

Legend:
[1] = target: T1, GDP-bound KRAS protein (aa 1-169), containing both G12C and C118A amino acid substitutions (Homo sapiens, UniProt P01116, C118A/G12C); assay: Coupled Nucleotide Exchange Assay (Table 15 conditions: 2 hours pre-incubation); assay type: biochemical; details: 2 hours compound pre-incubation (Table 15 conditions)
Experimental: For compounds in Table 15, the following assay conditions were employed:
Following compound pre-incubation, purified SOS protein (aa 564-1049) and GTP (Roche 10106399001) were added to the assay wells and incubated for an additional hour. […] The assay plates were then read on a PerkinElmer EnVision Multilabel Reader, using AlphaScreen® technology, and data were analyzed using a 4-parameter logistic model to calculate IC50 values.

[2] = test system: Phosphorylation of ERK1/2 in MIA PaCa-2 cells; assay: Phospho-ERK1/2 MSD Assay, MIA PaCa-2 (Table 16 conditions: 2 hours compound treatment); assay type: cell-based; details: 10 ng/mL EGF for 10 min, read-out: p-ERK IC50 (MIA PaCa-2)
Experimental: (§1) For compounds in Table 16, the following assay conditions were employed:
Sixteen hours prior to compound treatment, MIA PaCa-2 or A549 cells were seeded in 96-well cell culture plates at a density of 25,000 cells/well and incubated at 37° C., 5% CO2. A compound dose-response titration was diluted in growth media, added to appropriate wells of a cell culture plate, and then incubated at 37° C., 5% CO2 for 2 hours. […] Phosphorylation of ERK1/2 in compound-treated lysates was assayed using Phospho-ERK1/2 Whole Cell Lysate kits (Meso Scale Discovery K151DWD) according to the manufacturer's protocol. Assay plates were read on a Meso Scale Discovery Sector Imager 6000, and data were analyzed using a 4-parameter logistic model to calculate IC50 values.

[3] = target: T1, GDP-bound KRAS protein (aa 1-169), containing both G12C and C118A amino acid substitutions; assay: Coupled Nucleotide Exchange Assay (Table 16 conditions: 5 min pre-incubation); assay type: biochemical; details: 5 min compound pre-incubation; SOS-mediated nucleotide exchange, AlphaScreen
Experimental: as §1
The assay plates were then read on a PerkinElmer EnVision Multilabel Reader, using AlphaScreen® technology, and data were analyzed using a 4-parameter logistic model to calculate IC50 values.

[4] = Homo sapiens, MIA PaCa-2, MIA PaCa-2 cells

T1 sequence (P01116 1-169 isoform P01116-2 G12C/C118A): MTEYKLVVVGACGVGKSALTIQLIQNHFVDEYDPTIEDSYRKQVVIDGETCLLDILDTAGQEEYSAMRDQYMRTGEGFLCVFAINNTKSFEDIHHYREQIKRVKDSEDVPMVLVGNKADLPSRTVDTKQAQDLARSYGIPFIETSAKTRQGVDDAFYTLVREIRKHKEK

Coupled exchange IC50 [1]	pIC50 ([2]; MIA PaCa-2 cells)	IC50 [3]	pIC50 [2, 4]	pIC50 [3]	Compound
>250000 nM	–	–	–	–	C=CC(=O)N1CCN(c2snc3nc(-c4cc(OC)cc5ccccc45)c(Cl)cc23)C(C)C1 (racemic) [Example 2-4, 1-(4-(5-chloro-6-(3-methoxy-1-naphthalenyl)[1,2]thiazolo[3,4-b]pyridin-3-yl)-3-methyl-1-piperazinyl)-2-propen-1-one]
340 nM	–	–	–	–	C=CC(=O)N1CCN(c2nc(=O)n(-c3ccccc3C(C)C)c3cc(-c4c(O)cccc4F)c(Cl)cc23)[C@@H](C)C1 (single isomer, unassigned) [Example 8-3-2]
760 nM	–	–	–	–	C=C(CBr)C(=O)N1CCN(c2snc3c(F)c(-c4cc(O)cc5ccccc45)c(Cl)cc23)CC1 (single isomer, unassigned) [Example 18-2, 2-(bromomethyl)-1-(4-(5-chloro-7-fluoro-6-(3-hydroxy-1-naphthalenyl)-2,1-benzothiazol-3-yl)-1-piperazinyl)-2-propen-1-one]
24600 nM	–	–	–	–	C=C(CO)C(=O)N1CCN(c2snc3c(F)c(-c4cc(O)cc5ccccc45)c(Cl)cc23)CC1 (single isomer, unassigned) [Example 18-3, 1-(4-(5-chloro-7-fluoro-6-(3-hydroxy-1-naphthalenyl)-2,1-benzothiazol-3-yl)-1-piperazinyl)-2-(hydroxymethyl)-2-propen-1-one]
115 nM	–	–	–	–	C=CC(=O)N1CCN(c2snc3c(F)c(-c4cc(O)cc5ccccc45)c(Cl)cc23)[C@@H](C)C1 [Example 1-19-1, 1-((3S)-4-(5-chloro-7-fluoro-6-(3-hydroxy-1-naphthalenyl)-2,1-benzothiazol-3-yl)-3-methyl-1-piperazinyl)-2-propen-1-one]
283 nM	–	–	–	–	C=CC(=O)N1CCN(c2nc(=O)n(-c3ccccc3C(C)C)c3cc(-c4c(O)cccc4F)c(Cl)cc23)[C@@H](C)C1 [Example 8-3, 6-chloro-7-(2-fluoro-6-hydroxyphenyl)-4-((2S)-2-methyl-4-(2-propenoyl)-1-piperazinyl)-1-(2-(2-propanyl)phenyl)-2(1H)-quinazolinone]
282 nM	–	–	–	–	C=CC(=O)N1CCN(c2nc(=O)n(-c3ccccc3C(C)C)c3cc(-c4c(O)cccc4F)c(Cl)cc23)[C@@H](C)C1 [Example 8-3-1, 6-chloro-7-(2-fluoro-6-hydroxy-phenyl)-4-((2S)-2-methyl-4-(2-propenoyl)-1-piperazinyl)-1-(2-(2-propanyl)-phenyl)-2(1H)-quinazolinone]
1280 nM	–	–	–	–	C=CC(=O)N1CCN(c2nnc(-c3ccccc3C(C)C)c3cc(-c4c(O)cccc4F)c(C)nc23)CC1 [Example 27, 1-(4-(3-(2-Fluoro-6-hydroxyphenyl)-2-methyl-5-(2-(2-propanyl)phenyl)pyrido[2,3-d]pyridazin-8-yl)-1-piperazinyl)-2-propen-1-one]
–	6.44	335 nM	–	–	C=CC(=O)N1CCN(c2nc(=O)n(-c3c(C)ccnc3C3CC3)c3nc(-c4c(O)cccc4F)c(F)cc23)[C@@H](C)C1 [Example 42, 1-(2-Cyclopropyl-4-methyl-3-pyridinyl)-6-fluoro-7-(2-fluoro-6-hydroxyphenyl)-4-((2S)-2-methyl-4-(2-propenoyl)-1-piperazinyl)pyrido[2,3-d]pyrimidin-2(1H)-one]
–	6.99	150 nM	–	–	C=CC(=O)N1CCN(c2nc(=O)n(-c3c(C)ccnc3C3CC3)c3nc(-c4c(O)cccc4F)c(F)cc23)[C@@H](C)C1 [Example 42-1, 1-(2-cyclopropyl-4-methyl-3-pyridinyl)-6-fluoro-7-(2-fluoro-6-hydroxyphenyl)-4-((2S)-2-methyl-4-(2-propenoyl)-1-piperazinyl)pyrido-[2,3-d]pyrimidin-2(1H)-one]
–	–	38 nM	7.47	–	C=CC(=O)N1CCN(c2nc(=O)n(-c3c(C(C)C)ncnc3C(C)C)c3nc(-c4ccccc4F)c(Cl)cc23)[C@@H](C)C1 [Example 43, 6-Chloro-1-(4,6-di(2-propanyl)-5-pyrimidinyl)-7-(2-fluorophenyl)-4-((2S)-2-methyl-4-(2-propenoyl)-1-piperazinyl)pyrido[2,3-d]pyrimidin-2(1H)-one]
–	7.60	33 nM	–	–	C=CC(=O)N1CCN(c2nc(=O)n(-c3c(C)ccnc3C3CC3)c3nc(-c4c(O)cccc4F)c(Cl)cc23)[C@@H](C)C1 [Example 44-1]
–	6.86	208 nM	–	–	C=CC(=O)N1CCN(c2nc(=O)n(-c3c(C)ccnc3C3CC3)c3nc(-c4c(O)cccc4F)c(Cl)cc23)[C@@H](C)C1 [Example 44-2]
–	7.19	103 nM	–	–	C=CC(=O)N1CCN(c2nc(=O)n(-c3c(C)ccnc3C3CC3)c3nc(-c4c(O)cccc4F)c(Cl)cc23)[C@@H](C)C1 [Example 44]
–	7.21	–	–	6.50	C=CC(=O)N1CCN(c2nc(=O)n(-c3c(C)ccnc3C3CC3)c3nc(-c4ccccc4F)c(Cl)cc23)[C@@H](C)C1 [Example 45, 6-Chloro-1-(2-cyclopropyl-4-methyl-3-pyridinyl)-7-(2-fluorophenyl)-4-((2A)-2-methyl-4-(2-propenoyl)-1-piperazinyl)pyrido[2,3-d]pyrimidin-2(1H)-one]
–	6.77	493 nM	–	–	C=CC(=O)N1CCN(c2nc(=O)n(-c3c(C)ccnc3CC)c3nc(-c4ccccc4F)c(Cl)cc23)[C@@H](C)C1 [Example 46, 6-Chloro-1-(2-ethyl-4-methyl-3-pyridinyl)-7-(2-fluorophenyl)-4-((2S)-2-methyl-4-(2-propenoyl)-1-piperazinyl)pyrido[2,3-d]pyrimidin-2(1H)-one]
–	6.90	170 nM	–	–	C=CC(=O)N1CCN(c2nc(=O)n(-c3c(C)ccnc3CC)c3nc(-c4ccccc4F)c(Cl)cc23)[C@@H](C)C1 [Example 46-1, 6-chloro-1-(2-ethyl-4-methyl-3-pyridinyl)-7-(2-fluorophenyl)-4-((2S)-2-methyl-4-(2-propenoyl)-1-piperazinyl)pyrido-[2,3-d]pyrimidin-2(1H)-one]
–	6.26	971 nM	–	–	C=CC(=O)N1CCN(c2nc(=O)n(-c3c(C)ccnc3CC)c3nc(-c4ccccc4F)c(Cl)cc23)[C@@H](C)C1 [Example 46-2, 6-chloro-1-(2-ethyl-4-methyl-3-pyridinyl)-7-(2-fluorophenyl)-4-((2S)-2-methyl-4-(2-propenoyl)-1-piperazinyl)pyrido-[2,3-d]pyrimidin-2(1H)-one]
–	–	409 nM	6.82	–	C=CC(=O)N1CCN(c2nc(=O)n(-c3c(CC)ncnc3CC)c3nc(-c4ccccc4F)c(Cl)cc23)[C@@H](C)C1 [Example 47, 6-Chloro-1-(4,6-diethyl-5-pyrimidinyl)-7-(2-fluorophenyl)-4-((2S)-2-methyl-4-(2-propenoyl)-1-piperazinyl)pyrido[2,3-d]pyrimidin-2(1H)-one]
–	6.36	–	–	6.27	C=CC(=O)N1CCN(c2nc(=O)n(-c3ccccc3C(C)C)c3nc(-c4ccccc4F)c(C)nc23)[C@@H](C)C1 [Example 51, 7-(2-Fluorophenyl)-6-methyl-4-((2A)-2-methyl-4-(2-propenoyl)-1-piperazinyl)-1-(2-(2-propanyl)phenyl)-2(1H)-pteridinone]
–	7.15	125 nM	–	–	C=CC(=O)N1CCN(c2nc(=O)n(-c3c(C)cnn3C(C)C)c3nc(-c4ccccc4F)c(Cl)cc23)[C@@H](C)C1 [Example 53, 6-Chloro-7-(2-fluorophenyl)-1-(4-methyl-1-(2-propanyl)-1H-pyrazol-5-yl)-4-((2S)-2-methyl-4-(2-propenoyl)-1-piperazinyl)pyrido[2,3-d]pyrimidin-2(1H)-one]

Compound	Coupled exchange IC50 [1]	pIC50 ([2]; MIA PaCa-2 cells)	IC50 [3]	pIC50 [2, 4]	pIC50 [3]
C=CC(=O)N1CCN(c2nc(=O)n(-c3ccccc3C(C)(C)C)c3nc(-c4c(O)cccc4F)c(Cl)cc23)[C@@H](C)C1 [Example 49, 6-Chloro-7-(2-fluoro-6-hydroxyphenyl)-1-(2-(2-methyl-2-propanyl)phenyl)-4-((2S)-2-methyl-4-(2-propenoyl)-1-piperazinyl)pyrido[2,3-d]pyrimidin-2(1H)-one]	–	6.81	177 nM	–	–
